# Laboratory results from article PMC8745601 (International Journal of Molecular Sciences, 2021).
# Key:
# [1] = biological target: T1, OATP1A2*1 (Homo sapiens, UniProt P46721); test: in vitro
# T1 sequence (P46721 1-670): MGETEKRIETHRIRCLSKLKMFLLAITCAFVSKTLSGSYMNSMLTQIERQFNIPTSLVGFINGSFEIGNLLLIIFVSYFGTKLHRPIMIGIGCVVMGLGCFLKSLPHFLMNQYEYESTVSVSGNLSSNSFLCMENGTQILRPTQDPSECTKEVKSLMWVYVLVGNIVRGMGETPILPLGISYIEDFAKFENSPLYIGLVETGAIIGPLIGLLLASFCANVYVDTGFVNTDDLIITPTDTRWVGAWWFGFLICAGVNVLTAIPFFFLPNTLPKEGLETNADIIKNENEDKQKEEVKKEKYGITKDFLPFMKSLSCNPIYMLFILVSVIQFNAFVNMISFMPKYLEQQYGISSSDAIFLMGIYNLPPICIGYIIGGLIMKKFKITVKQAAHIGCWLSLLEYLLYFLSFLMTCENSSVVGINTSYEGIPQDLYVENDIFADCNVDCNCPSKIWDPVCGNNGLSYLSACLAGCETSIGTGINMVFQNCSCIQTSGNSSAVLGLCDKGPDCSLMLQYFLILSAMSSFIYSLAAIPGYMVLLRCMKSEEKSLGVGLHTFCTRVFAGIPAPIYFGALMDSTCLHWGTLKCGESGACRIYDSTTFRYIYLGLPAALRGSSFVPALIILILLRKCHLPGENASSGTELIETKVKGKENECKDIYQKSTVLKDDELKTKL
# Method: (§1) Cellular uptake studies: For all transport studies, cells were seeded in 24-well plates and incubated in a full growth medium at an initial density of 200,000 cells/well for 3 days. Before starting each transport experiment, cells were washed with a pre-warmed (37 °C) incubation buffer [64]. […] Protein concentration of whole cell lysate was determined to quantify cell density after each experiment using the BCA assay according to the manufacturer’s instructions (Pierce, Rockford, IL, USA).
# (§2) Protein abundance of OATP1A2*1–*3 and OCT1–3 were measured by mass spectrometry-based targeted proteomics using a validated LC-MS/MS method as recently described [65].
# 200 μL of each cell lysate sample was mixed with 25 μL internal standard (5 µg/mL daunorubicin), 25 μL citric acid (1%), and 400 μL ice-cold acetonitrile for protein precipitation. […] The clear supernatant was transferred to HPLC vials. The measurement and quantitative evaluation were carried out using the LC-MS/MS system QTRAP 4000® (AB SCIEX, Darmstadt, Germany) and the Software Analyst® 1.4 (Applied Biosystems, Darmstadt, Germany).
# Statistical evaluation: All experiments were performed at least three times unless otherwise noted. The OATP1A2*1–*3 and OCT1-3 net uptake was obtained by subtracting the uptake into wild-type cells from that of the transporter-transfected cells. […]
# [2] = biological target: T2, OCT1 (Homo sapiens, UniProt O15245); details: OCT1 affinity to doxorubicin; cited from earlier work
# T2 sequence (O15245 1-554): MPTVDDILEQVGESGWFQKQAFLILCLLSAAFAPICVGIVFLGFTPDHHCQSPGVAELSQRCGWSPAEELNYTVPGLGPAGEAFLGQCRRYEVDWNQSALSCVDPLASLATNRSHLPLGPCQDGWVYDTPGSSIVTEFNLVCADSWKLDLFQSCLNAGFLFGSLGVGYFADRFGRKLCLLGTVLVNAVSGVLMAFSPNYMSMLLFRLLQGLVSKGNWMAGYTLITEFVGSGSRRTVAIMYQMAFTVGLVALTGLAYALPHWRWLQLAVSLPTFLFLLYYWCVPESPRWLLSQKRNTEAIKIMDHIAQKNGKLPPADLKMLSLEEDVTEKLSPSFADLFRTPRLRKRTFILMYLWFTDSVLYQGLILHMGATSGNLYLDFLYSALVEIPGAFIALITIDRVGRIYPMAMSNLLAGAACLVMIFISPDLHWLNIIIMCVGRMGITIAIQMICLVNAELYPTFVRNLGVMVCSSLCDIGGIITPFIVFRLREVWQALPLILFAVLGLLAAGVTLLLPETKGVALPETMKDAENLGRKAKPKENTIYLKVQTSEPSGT
# [3] = test system: HEK293 cells expressing OATP1A2*1, *2, *3; details: OATP1A2 transfected cells; 100 µmol/L doxorubicin, 72 h; versus DMSO
# Method: Resazurin-Assay: To determine cell viability, cells were seeded at a density of 10,000 cells/well in 96-well multiplates. […] Afterward, 100 µL from each well was placed in a cavity of a 96-well plate, and the fluorescence was determined on a microplate reader (TECAN infinite M200, Tecan GmbH, Crailsheim, Germany) at an excitation wavelength of 530 nm and an emission wavelength of 590 nm.
# [4] = test system: OCT1-3 and OATP1A2; test: in vitro; details: human, OATP1A2*1 and OCT1-3 transfected cells
# Method: as §1, §2
# (§3) Statistical evaluation: All experiments were performed at least three times unless otherwise noted. The OATP1A2*1–*3 and OCT1-3 net uptake was obtained by subtracting the uptake into wild-type cells from that of the transporter-transfected cells. Km and Vmax were assessed using Prism 5.01 (GraphPad Software, San Diego, CA, USA). […] Km and Vmax are presented as arithmetic means ± standard deviation.
# [5] = biological target: T3, P-gp (Homo sapiens, UniProt P08183); test: Transwell assay, MDCKII cells stably expressing P-gp; assay type: cell-based; details: 100 µmol/L doxorubicin; MDCKII-P-gp on Transwell
# T3 construct: expressed in transfected cells; host or cells: MDCKII
# T3 sequence (P08183 whole entry): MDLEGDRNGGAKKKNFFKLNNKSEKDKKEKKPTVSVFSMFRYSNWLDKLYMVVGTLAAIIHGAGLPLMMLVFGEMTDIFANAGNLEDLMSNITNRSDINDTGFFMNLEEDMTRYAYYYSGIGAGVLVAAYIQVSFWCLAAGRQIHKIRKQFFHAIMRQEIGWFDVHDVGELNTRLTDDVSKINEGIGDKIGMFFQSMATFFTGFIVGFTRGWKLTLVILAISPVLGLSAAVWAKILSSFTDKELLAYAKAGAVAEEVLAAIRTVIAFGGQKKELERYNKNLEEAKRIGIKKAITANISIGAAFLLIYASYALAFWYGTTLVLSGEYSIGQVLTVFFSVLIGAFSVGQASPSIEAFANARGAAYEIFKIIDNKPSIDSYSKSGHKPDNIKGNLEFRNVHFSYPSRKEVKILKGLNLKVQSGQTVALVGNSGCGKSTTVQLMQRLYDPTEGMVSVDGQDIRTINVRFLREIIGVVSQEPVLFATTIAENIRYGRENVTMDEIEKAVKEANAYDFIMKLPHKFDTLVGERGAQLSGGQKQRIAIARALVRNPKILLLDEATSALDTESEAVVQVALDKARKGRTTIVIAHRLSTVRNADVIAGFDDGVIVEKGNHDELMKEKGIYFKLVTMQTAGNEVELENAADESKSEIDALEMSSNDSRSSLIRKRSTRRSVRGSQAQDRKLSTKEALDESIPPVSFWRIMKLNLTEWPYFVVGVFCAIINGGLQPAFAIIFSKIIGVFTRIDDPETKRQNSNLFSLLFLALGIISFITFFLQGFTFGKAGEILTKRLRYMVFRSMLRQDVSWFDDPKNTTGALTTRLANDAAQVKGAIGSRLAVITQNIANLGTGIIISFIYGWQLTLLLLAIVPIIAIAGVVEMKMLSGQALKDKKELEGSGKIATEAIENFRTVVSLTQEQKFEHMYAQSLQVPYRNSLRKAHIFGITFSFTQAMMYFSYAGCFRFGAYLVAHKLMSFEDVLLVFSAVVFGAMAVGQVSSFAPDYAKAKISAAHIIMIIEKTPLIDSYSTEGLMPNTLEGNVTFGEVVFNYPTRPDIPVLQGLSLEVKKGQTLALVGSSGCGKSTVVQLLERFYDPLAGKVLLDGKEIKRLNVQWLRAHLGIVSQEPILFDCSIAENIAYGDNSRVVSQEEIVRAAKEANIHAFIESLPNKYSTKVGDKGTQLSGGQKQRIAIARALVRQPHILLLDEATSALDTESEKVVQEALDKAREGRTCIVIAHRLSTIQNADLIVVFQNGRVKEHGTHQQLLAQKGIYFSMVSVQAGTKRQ
# Method: In brief, MDCKII cells stably expressing P-gp or BCRP were seeded on 0.4 µm Transwell® membrane inserts (200.000 cells/insert; Ø6.5 mm, growth area 0.33 cm2) and allowed to differentiate for five days. The integrity of the monolayer was confirmed by monitoring the trans-epithelial electrical resistance (TEER) using the EVOMX system (WPI, Sarasota, FL, USA). […] Every 30 min, the incubation buffer was removed from the receiver compartment and replaced by a freshly preheated buffer for a total time of 2.5 h.
# [6] = test system: transfected cell lines and tumorous cell lines; test: Short-term cytotoxicity check (Presto Blue cell viability assay); assay type: cell-based; details: concentrations tested (100 µmol/L), data not shown
# [7] = test system: OATP1A2; details: transiently transfected HeLa cells, ref 22 (Lee et al.); cited from earlier work
# [8] = biological target: T4, OCT3 (Homo sapiens, UniProt O75751); test: Doxorubicin uptake into MDCKII cells stably expressing OCT3
# T4 sequence (O75751 1-556): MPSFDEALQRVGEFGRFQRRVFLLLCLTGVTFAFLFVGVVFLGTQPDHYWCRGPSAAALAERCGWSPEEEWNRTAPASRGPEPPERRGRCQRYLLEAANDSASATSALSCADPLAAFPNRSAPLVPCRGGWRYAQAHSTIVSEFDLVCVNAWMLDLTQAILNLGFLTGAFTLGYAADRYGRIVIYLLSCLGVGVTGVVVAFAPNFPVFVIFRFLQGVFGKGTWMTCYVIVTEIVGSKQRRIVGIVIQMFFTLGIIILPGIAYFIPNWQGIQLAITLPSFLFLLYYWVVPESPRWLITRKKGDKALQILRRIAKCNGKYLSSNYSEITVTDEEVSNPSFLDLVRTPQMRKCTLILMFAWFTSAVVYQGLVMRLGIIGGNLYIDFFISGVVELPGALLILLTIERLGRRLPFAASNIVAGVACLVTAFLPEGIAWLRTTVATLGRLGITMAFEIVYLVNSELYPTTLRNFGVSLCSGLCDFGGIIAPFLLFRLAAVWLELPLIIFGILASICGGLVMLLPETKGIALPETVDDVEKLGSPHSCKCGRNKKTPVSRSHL
# Method: as §1
# Statistical evaluation: All experiments were performed at least three times unless otherwise noted. The OATP1A2*1–*3 and OCT1-3 net uptake was obtained by subtracting the uptake into wild-type cells from that of the transporter-transfected cells. Km and Vmax were assessed using Prism 5.01 (GraphPad Software, San Diego, CA, USA). The differences in the doxorubcin uptake in OATP1A2*1–*3 and in OCT1-3 transfected cells were adjusted to the membranous transporter protein levels in the whole cell lysate. Km and Vmax are presented as arithmetic means ± standard deviation.
# [9] = test system: OATP1A2*2/*3; test: Doxorubicin uptake clearance by OATP1A2 genetic variants versus wild type; assay type: cell-based, human; details: OATP1A2*2 and *3 versus OATP1A2*1
# Method: as §1, §2, §3
structure (smiles),measurement,setting,value
"COc1cccc2c1C(=O)c1c(O)c3c(c(O)c1C2=O)C[C@@](O)(C(=O)CO)C[C@@H]3O[C@H]1C[C@H](N)[C@H](O)[C@H](C)O1 [doxorubicin, Doxorubicin]",Km at 5 min,[1]; HEK293 cells stably expressing OATP1A2*1,7.49 ± 3.41 µM
same,microsomal CLint at 5 min,[1]; other cell line,4.71 ± 1.53 µL/min/mg
same,Km,[2],~5 µM
same,cell viability in presence of doxorubicin,[3],significantly reduced
same,Km,[4],5 to 13 µM
same,vectorial transport of doxorubicin by P-gp,[5],vectorial transport from the basolateral to the apical compartment
same,cytotoxic effects within one hour,[6],no cytotoxic effects
same,Km,[7],31.7 µM
same,Vmax,"[8]; MDCKII-OCT3, doxorubicin 0–100 µmol/L, 3 min, mean ± SD",12.9 ± 3.60 pmol/mg/min
same,microsomal CLint at 3 min,"[8]; human, mdck",0.99 ± 0.33 µL/min/mg
same,diminished cellular uptake clearance by the genetic variants,[9],51–70%
